Measured values published in US9204653B2, “5-fluoro pyrimidine derivatives” (DOW AGROSCIENCES LLC, priority 2008, dated 2015).
Like-named read-outs stand apart in the source and are kept apart here.

System: Mycosphaerella graminicola; Anamorph: Septoria tritici; Bayer Code SEPTTR
Test: Leaf blotch of wheat, foliar fungicide treatment, one day protectant (1DP) or three day curative (3DC)
Type: in vivo, Septoria tritici on wheat plants (variety Yuma)
Settings: Zymoseptoria tritici, rating of percent disease control
[1] = 24 h, one day protectant (1DP), read-out: SETTTR 1DP 25 ppm
[2] = 24 h, one day protectant (1DP), read-out: SEPTTR 1DP 100 ppm
[3] = 72 h, three day curative (3DC), read-out: SEPTTR 3DC 25 ppm
[4] = 72 h, three day curative (3DC), read-out: SEPTTR 3DC 100 ppm

Structure (SMILES) | pest or weed control at 25 ppm [1] | pest or weed control at 100 ppm [2] | pest or weed control at 25 ppm [3] | pest or weed control at 100 ppm [4]
Cc1cc(C)nc(NNc2nc(OCc3ccccc3)ncc2F)n1 [Compound 470] | 0 to 25% | 0 to 25% | 26 to 50% | 26 to 50%
Nc1nc(OCc2cn3ccsc3n2)ncc1F [Compound 472] | 76 to 100% | 76 to 100% | 76 to 100% | 76 to 100%
NNc1nc(OCc2ccc(F)cc2)ncc1F [Compound 473] | 26 to 50% | 76 to 100% | 26 to 50% | 76 to 100%
CC(Oc1ncc(F)c(N)n1)c1ccc(Oc2ccccc2)cc1 (stereo not shown) [Compound 474] | 76 to 100% | 76 to 100% | 76 to 100% | 76 to 100%
CCCNC(=S)Nc1nc(OCc2ccccc2OC)ncc1F [Compound 475] | 51 to 75% | 76 to 100% | 51 to 75% | 76 to 100%
COc1ccc(COc2ncc(F)c(N)n2)cc1C(F)(F)F [Compound 476] | 76 to 100% | 76 to 100% | 76 to 100% | 76 to 100%
O=C(NCc1ccccc1F)Nc1nc(OCc2ccc(F)cc2)ncc1F [Compound 477] | 0 to 25% | 0 to 25% | 0 to 25% | 51 to 75%
O=C(Nc1nc(OCc2cccc(F)c2)ncc1F)OCc1ccccc1 [Compound 478] | 51 to 75% | 76 to 100% | 76 to 100% | 76 to 100%
O=[N+]([O-])c1ccccc1SNc1nc(OCc2c(F)cc(Br)cc2F)ncc1F [Compound 479] | 76 to 100% | 76 to 100% | 51 to 75% | 51 to 75%
CNc1nc(OCc2cc(OC)c(OC)c(OC)c2)ncc1F [Compound 480] | 0 to 25% | 0 to 25% | 0 to 25% | 0 to 25%
NN(c1ccccc1)c1nc(OCc2ccccc2)ncc1F [Compound 482] | 0 to 25% | 0 to 25% | 0 to 25% | 26 to 50%
CN(C)/C=N/c1nc(OC(=O)c2cccc(Cl)c2)ncc1F [Compound 484] | 76 to 100% | 76 to 100% | 76 to 100% | 76 to 100%
O=C(Nc1ccccc1)Nc1nc(OCc2ccc(F)cc2)ncc1F [Compound 485] | 0 to 25% | 0 to 25% | 0 to 25% | 0 to 25%
Cc1noc(-c2ccccc2COc2ncc(F)c(N)n2)n1 [Compound 486] | 0 to 25% | 0 to 25% | 26 to 50% | 26 to 50%
CN(O)c1nc(OCc2ccc(F)cc2)ncc1F [Compound 487] | 0 to 25% | 76 to 100% | 0 to 25% | 76 to 100%
CC#CCOc1ncc(F)c(N)n1 [Compound 489] | 0 to 25% | 51 to 75% | 76 to 100% | 76 to 100%
CCOC(=O)Nc1nc(OCc2ccc(C)cc2)ncc1F [Compound 490] | 76 to 100% | 76 to 100% | 76 to 100% | 76 to 100%

Structure (SMILES) | pest or weed control at 25 ppm [1] | pest or weed control at 100 ppm [2] | pest or weed control at 25 ppm [3] | pest or weed control at 100 ppm [4]
Fc1ccc(COc2ncc(F)c(NNC3CCCCC3)n2)cc1 [Compound 492] | 0 to 25% | 26 to 50% | 0 to 25% | 26 to 50%
Fc1cnc(OCc2ccccc2)nc1NNC1CCCCC1 [Compound 493] | 0 to 25% | 26 to 50% | 0 to 25% | 0 to 25%
CN(C)/C=N/c1nc(OCc2cccc(F)c2)ncc1F [Compound 494] | 76 to 100% | 76 to 100% | 76 to 100% | 76 to 100%
Cc1ccc(COc2ncc(F)c(NC(=O)Cc3ccccc3)n2)cc1 [Compound 497] | 51 to 75% | 76 to 100% | 0 to 25% | 26 to 50%
CCOCNc1nc(OCc2cccc(F)c2)ncc1F [Compound 498] | 76 to 100% | 76 to 100% | 76 to 100% | 76 to 100%
Cc1c(F)c(F)c(COc2ncc(F)c(N)n2)c(F)c1F [Compound 500] | 76 to 100% | 76 to 100% | 76 to 100% | 76 to 100%
O=C(Nc1nc(OCc2ccc(F)cc2)ncc1F)C(F)F [Compound 501] | 76 to 100% | 76 to 100% | 76 to 100% | 76 to 100%
CC(Oc1ncc(F)c(N)n1)c1cc(Cl)c(Cl)cc1Cl (stereo not shown) [Compound 502] | 0 to 25% | 0 to 25% | 0 to 25% | 0 to 25%
CC[Si](CC)(CC)Nc1nc(OCc2cccs2)ncc1F [Compound 503] | 76 to 100% | 76 to 100% | 76 to 100% | 76 to 100%
N#Cc1cccc(COc2ncc(F)c(NC(=S)NCc3ccccc3F)n2)c1 [Compound 504] | 0 to 25% | 51 to 75% | 0 to 25% | 0 to 25%
Fc1cnc(OCc2cccs2)nc1NCOCc1ccccc1 [Compound 506] | 26 to 50% | 76 to 100% | 0 to 25% | 0 to 25%
CC[Si](CC)(CC)Nc1nc(OCCc2ccc(Cl)cc2)ncc1F [Compound 507] | 51 to 75% | 76 to 100% | 0 to 25% | 76 to 100%
Nc1nc(OCc2ccsc2)ncc1F [Compound 508] | 76 to 100% | 76 to 100% | 76 to 100% | 76 to 100%
Nc1nc(OCC2CC2(F)F)ncc1F (stereo not shown) [Compound 509] | 0 to 25% | 0 to 25% | 26 to 50% | 0 to 25%
Cn1ccc2cc(COc3ncc(F)c(N)n3)ccc21 [Compound 511] | 51 to 75% | 51 to 75% | 26 to 50% | 26 to 50%
CCC(Oc1ncc(F)c(N)n1)c1ccc(F)cc1 (stereo not shown) [Compound 513] | 76 to 100% | 76 to 100% | 76 to 100% | 76 to 100%
Fc1ccc(COc2ncc(F)c(NNc3ccccc3Cl)n2)cc1 [Compound 515] | 0 to 25% | 76 to 100% | 0 to 25% | 0 to 25%
